Measurements reported in patent US9681664B2, “Macrocyclic picolinamides as fungicides” (Dow Agrosciences LLC, priority 2012, dated 2017).
Where two headings read alike, the source gives them in different places.

Tests used:
[1] = system: Puccinia triticina; Synonym: Puccinia recondite f. sp. tritici; experiment: Wheat brown rust (PUCCRT) disease control on wheat seedlings; format: in vivo; settings: for pest or weed control at 100 ppm / pest or weed control at 121.5 g/ha: Puccinia triticina; for pest or weed control at 121.5 g/ha: low volume application, 121.5 g/H
Experimental: Technical grades of materials were dissolved in acetone, which were then mixed with nine volumes of water containing 110 ppm Triton X-100. The fungicide solutions were applied onto wheat seedlings using an automated booth sprayer to run-off. All sprayed plants were allowed to air dry prior to further handling. All fungicides were evaluated using the aforementioned method for their activity vs. all target diseases. Wheat leaf blotch and brown rust activity were also evaluated using track spray applications, in which case the fungicides were formulated as EC formulations, containing 0.1% Trycol 5941 in the spray solutions. Wheat plants (variety Yuma) were grown from seed in a greenhouse in 50% mineral soil/50% soil-less Metro mix until the first leaf was fully emerged, with 7-10 seedlings per pot. These plants were inoculated with an aqueous spore suspension of Puccinia triticina either prior to or after fungicide treatments. After inoculation the plants were kept in a dark dew room at 22° C. with 100% relative humidity overnight to permit spores to germinate and infect the leaf. The plants were then transferred to a greenhouse set at 24° C. for disease to develop. Fungicide formulation, application and disease assessment followed the procedures as described in the Example A.

[2] = system: Mycosphaerella graminicola; Anamorph: Septoria tritici; experiment: Leaf blotch of wheat (SEPTTR) disease control on wheat seedlings; format: in vivo; settings: for pest or weed control at 100 ppm / pest or weed control at 121.5 g/ha: Zymoseptoria tritici; for pest or weed control at 121.5 g/ha: low volume application, 121.5 g/H
Experimental: Technical grades of materials were dissolved in acetone, which were then mixed with nine volumes of water containing 110 ppm Triton X-100. The fungicide solutions were applied onto wheat seedlings using an automated booth sprayer to run-off. All sprayed plants were allowed to air dry prior to further handling. All fungicides were evaluated using the aforementioned method for their activity vs. all target diseases. Wheat leaf blotch and brown rust activity were also evaluated using track spray applications, in which case the fungicides were formulated as EC formulations, containing 0.1% Trycol 5941 in the spray solutions. Wheat plants (variety Yuma) were grown from seed in a greenhouse in 50% mineral soil/50% soil-less Metro mix until the first leaf was fully emerged, with 7-10 seedlings per pot. These plants were inoculated with an aqueous spore suspension of Septoria tritici either prior to or after fungicide treatments. After inoculation the plants were kept in 100% relative humidity (one day in a dark dew chamber followed by two to three days in a lighted dew chamber at 20° C.) to permit spores to germinate and infect the leaf. The plants were then transferred to a greenhouse set at 20° C. for disease to develop. When disease symptoms were fully expressed on the 1st leaves of untreated plants, infection levels were assessed on a scale of 0 to 100 percent disease severity. Percent disease control was calculated using the ratio of disease severity on treated plants relative to untreated plants.

[3] = 24 h, High volume application, 100 ppm, 1 Day Protectant, read-out: PUCCRT 1DP disease control
[4] = 72 h, High volume application, 100 ppm, 3 Day Curative, read-out: PUCCRT 3DC disease control
[5] = 24 h, High volume application, 100 ppm, 1 Day Protectant, read-out: SEPTTR 1DP disease control
[6] = 72 h, High volume application, 100 ppm, 3 Day Curative, read-out: SEPTTR 3DC disease control
[7] = High volume application, 100 ppm, 1 Day Protectant
[8] = High volume application, 100 ppm, 3 Day Curative
[9] = 24 h, Wheat Brown Rust, 1 Day Protectant, high volume application, 100 ppm, read-out: Disease Control PUCCRT 1 DP 100 ppm
[10] = 24 h, Wheat Brown Rust, 1 Day Protectant, read-out: Disease Control PUCCRT 1 DP 121.5 g/H
[11] = 72 h, Wheat Brown Rust, 3 Day Curative, high volume application, 100 ppm, read-out: Disease Control PUCCRT 3 DC 100 ppm
[12] = 72 h, Wheat Brown Rust, 3 Day Curative, read-out: Disease Control PUCCRT 3 DC 121.5 g/H
[13] = 24 h, Wheat Leaf Blotch, 1 Day Protectant, high volume application, 100 ppm, read-out: Disease Control SEPTTR 1 DP 100 ppm
[14] = 24 h, Wheat Leaf Blotch, 1 Day Protectant, read-out: Disease Control SEPTTR 1 DP 121.5 g/H
[15] = 72 h, Wheat Leaf Blotch, 3 Day Curative, high volume application, 100 ppm, read-out: Disease Control SEPTTR 3 DC 100 ppm
[16] = 72 h, Wheat Leaf Blotch, 3 Day Curative, read-out: Disease Control SEPTTR 3 DC 121.5 g/H

Row | Molecule | pest or weed control at 100 ppm [1, 3] | pest or weed control at 100 ppm [1, 4] | pest or weed control at 100 ppm [2, 5] | pest or weed control at 100 ppm [2, 6] | other results
1 | COc1ccnc(C(=O)N[C@H]2CCC[C@H](OCC(C)C)[C@@H](OCCCc3ccccc3)[C@H](C)OC2=O)c1O [F40] | 80 to 100% | 80 to 100% | 0 to 80% | 0 to 80% | 
2 | COc1ccnc(C(=O)N[C@H]2CCC[C@H](OCC(C)C)[C@@H](OC(=O)C3CC3)[C@H](C)OC2=O)c1OC(C)=O [F42] | 80 to 100% | 80 to 100% | 80 to 100% | 80 to 100% | 
3 | CCCO[C@H]1[C@H](C)OC(=O)[C@@H](NC(=O)c2nccc(OC)c2O)CCC[C@@H]1OC1CCCC1 [F118] | 80 to 100% | 80 to 100% | 80 to 100% | 0 to 80% | 
4 | [2-[[(3S,7S,8S,9S)-7-(cyclopentoxy)-9-methyl-2-oxo-8-propoxy-oxonan-3-yl]carbamoyl]-4-methoxy-3-pyridyl]3-methoxypropanoate [F19] |  |  |  |  | PUCCRT 1DP disease control [1, 7]: A (80-100); PUCCRT 3DC disease control [1, 8]: A (80-100); SEPTTR 1DP disease control [2, 7]: A (80-100); SEPTTR 3DC disease control [2, 8]: A (80-100)
5 | CCCO[C@H]1CCC[C@H](NC(=O)c2nccc(OC)c2OC(C)=O)C(=O)O[C@@H](C)[C@@H]1Oc1ccc(OC)cc1 [F274] |  |  |  |  | pest or weed control at 100 ppm [1, 9]: 80 to 100%; pest or weed control at 121.5 g/ha [1, 10]: 80 to 100%; pest or weed control at 100 ppm [1, 11]: 80 to 100%; pest or weed control at 121.5 g/ha [1, 12]: 0 to 80%; pest or weed control at 100 ppm [2, 13]: 80 to 100%; pest or weed control at 121.5 g/ha [2, 14]: 80 to 100%; pest or weed control at 100 ppm [2, 15]: 80 to 100%; pest or weed control at 121.5 g/ha [2, 16]: 80 to 100%
6 | CCCO[C@H]1[C@H](C)OC(=O)[C@@H](NC(=O)c2nccc(OC)c2O)CCC[C@@H]1Oc1ccccc1 [F93] | 80 to 100% | 80 to 100% | 80 to 100% | 80 to 100% | 
7 | COc1ccnc(C(=O)N[C@H]2CCC[C@H](OC3CCCC3)[C@@H](OCCCC(F)(F)F)[C@H](C)OC2=O)c1OCOC(C)=O [F125] | 80 to 100% | 80 to 100% | 80 to 100% | 80 to 100% | 
8 | COc1ccnc(C(=O)N[C@H]2CCC[C@H](Oc3ccccc3)[C@@H](OCCCc3ccccc3)[C@H](C)OC2=O)c1O [F111] | 80 to 100% | < 0% | 0 to 80% | 0 to 80% | 
9 | COc1ccnc(C(=O)N[C@H]2CCC[C@H](Oc3ccccc3)[C@@H](OC(=O)C3CCCC3)[C@H](C)OC2=O)c1OCOC(C)=O [F233] |  |  |  |  | pest or weed control at 100 ppm [1, 9]: 80 to 100%; pest or weed control at 121.5 g/ha [1, 10]: 80 to 100%; pest or weed control at 100 ppm [1, 11]: 80 to 100%; pest or weed control at 121.5 g/ha [1, 12]: 0 to 80%; pest or weed control at 100 ppm [2, 13]: 80 to 100%; pest or weed control at 121.5 g/ha [2, 14]: 80 to 100%; pest or weed control at 100 ppm [2, 15]: 80 to 100%; pest or weed control at 121.5 g/ha [2, 16]: 80 to 100%
10 | COc1ccnc(C(=O)N[C@H]2CCC[C@H](Oc3ccccc3)[C@@H](OC/C=C/C(F)(F)F)[C@H](C)OC2=O)c1OCOC(C)=O [F106] | 80 to 100% | 80 to 100% | 80 to 100% | 80 to 100% | 
11 | COc1ccnc(C(=O)N[C@H]2CCC[C@H](OCCCc3ccccc3)[C@@H](Oc3ccccc3)[C@H](C)OC2=O)c1O [F128] | 80 to 100% | 0 to 80% | 80 to 100% | < 0% | 
12 | COCCC(=O)Oc1c(OC)ccnc1C(=O)N[C@H]1CCC[C@H](Oc2ccccc2)[C@@H](OCCCC(F)(F)F)[C@H](C)OC1=O [F110] | 80 to 100% | 80 to 100% | 80 to 100% | 80 to 100% | 
13 | COc1ccc(O[C@H]2CCC[C@H](NC(=O)c3nccc(OC)c3O)C(=O)O[C@@H](C)[C@@H]2Oc2ccc(F)cc2)cc1 [F54] | 80 to 100% | 80 to 100% | 80 to 100% | 0 to 80% | 
